pIC50: −log10 of the molar value.
Columns and labels:
HCT116 cell line = experiment: In vitro antiproliferative activity, MTT assay, HCT116; assay type: cell-based; details: Homo sapiens, HCT-116, 48 h
Procedure: (§1) HCT116, MCF-7 and B16 cell lines were plated on 96-well plates at a density of 5000 per well and incubated overnight. […] After 48 h, 0.5% MTT (Amresco, Solon, OH, USA) solution was added to each well, and further incubation for 4 h, then cells were centrifuged at 2500 rpm for 15 min and removed from the culture medium. And add 150 μL DMSO to dissolve the formazan. After mixing for 5 min, optical density was detected at 570 nm on a microplate reader (Thermo, Waltham, MA, USA).

MCF-7 cell line = experiment: In vitro antiproliferative activity, MTT assay, MCF-7; assay type: cell-based; details: Homo sapiens, MCF7, 48 h
Procedure: as §1

B16 cell line = experiment: In vitro antiproliferative activity, MTT assay, B16; assay type: cell-based; details: Mus musculus, 48 h
Procedure: as §1

EGFR = EGFR (Homo sapiens, UniProt P00533); experiment: EGFR inhibitory assay (caliper mobility shift assay)
Sequence of EGFR (P00533 25-1210): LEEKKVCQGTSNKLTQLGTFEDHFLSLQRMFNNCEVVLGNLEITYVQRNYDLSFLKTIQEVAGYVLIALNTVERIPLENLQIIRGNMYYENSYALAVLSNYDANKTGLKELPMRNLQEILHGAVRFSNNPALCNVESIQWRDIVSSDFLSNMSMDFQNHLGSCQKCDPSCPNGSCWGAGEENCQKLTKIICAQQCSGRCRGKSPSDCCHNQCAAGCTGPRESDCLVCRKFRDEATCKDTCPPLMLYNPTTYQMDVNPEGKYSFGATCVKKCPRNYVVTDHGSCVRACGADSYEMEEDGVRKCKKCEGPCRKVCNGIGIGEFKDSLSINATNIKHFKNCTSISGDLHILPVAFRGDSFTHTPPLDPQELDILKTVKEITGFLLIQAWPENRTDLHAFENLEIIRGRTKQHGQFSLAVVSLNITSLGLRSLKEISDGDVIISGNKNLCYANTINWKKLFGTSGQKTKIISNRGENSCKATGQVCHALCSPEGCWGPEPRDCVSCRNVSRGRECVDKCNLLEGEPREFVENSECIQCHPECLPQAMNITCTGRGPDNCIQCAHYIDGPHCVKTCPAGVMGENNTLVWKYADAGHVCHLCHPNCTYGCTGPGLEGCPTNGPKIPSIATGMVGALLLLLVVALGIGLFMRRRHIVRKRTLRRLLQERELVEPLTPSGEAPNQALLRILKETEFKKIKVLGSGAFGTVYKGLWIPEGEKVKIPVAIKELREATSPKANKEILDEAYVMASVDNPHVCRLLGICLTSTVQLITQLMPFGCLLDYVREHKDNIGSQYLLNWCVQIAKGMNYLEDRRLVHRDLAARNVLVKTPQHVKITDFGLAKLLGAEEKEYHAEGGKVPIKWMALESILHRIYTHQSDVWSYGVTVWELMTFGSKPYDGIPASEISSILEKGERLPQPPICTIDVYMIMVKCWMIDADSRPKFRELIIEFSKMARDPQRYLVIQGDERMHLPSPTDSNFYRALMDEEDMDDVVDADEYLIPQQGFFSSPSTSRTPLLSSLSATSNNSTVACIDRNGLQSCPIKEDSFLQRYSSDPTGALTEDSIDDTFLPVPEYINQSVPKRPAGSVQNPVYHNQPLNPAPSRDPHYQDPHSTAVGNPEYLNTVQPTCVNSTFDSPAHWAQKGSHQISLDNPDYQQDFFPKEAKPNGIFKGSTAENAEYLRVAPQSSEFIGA
Procedure: (§2) Each of these compounds was dissolved in DMSO at 10 mM, diluted to 50× of the final desired highest inhibitor concentration in reaction by 100% DMSO, and 100 μL of each dilution was added to one well on 96-well storage plate, and diluted by transferring 10 μL to 90 μL of 100% DMSO in the next well. Besides, 100 μL of 100% DMSO was added to two empty wells for no compound control and no enzyme control in the same 96-well plate respectively. The plate was marked as source plate. 10 μL of each compound was transferred from the source plate to a new 96-well plate, which was marked as the intermediate plate. Next, 90 μL of 1× kinase base buffer was added to each well of the intermediate plate, and mixed by shaking vigorously for 10 min. A total of 5 μL of each well from the 96-well intermediate plate was transferred to a 384-well plate in duplicate.
(§3) Kinase reaction: kinase in 1× kinase base buffer, FAM-labeled peptide and ATP in the 1× kinase base buffer were added, then 10 μL of 2.5× enzyme solution was added to each well of the 384-well assay plate. After incubating at room temperature for 10 min, 10 μL of 2.5× peptide solution was added to each well of the 384-well assay plate. […] Finally, the kinase reactions were quenched with 25 μL of EDTA and the plates were washed. The dates were collected and converted with the caliper program.

VEGFR-2 = VEGFR-2 (Homo sapiens, UniProt P35968); experiment: VEGFR-2 inhibitory assay (caliper mobility shift assay)
Sequence of VEGFR-2 (P35968 20-1356): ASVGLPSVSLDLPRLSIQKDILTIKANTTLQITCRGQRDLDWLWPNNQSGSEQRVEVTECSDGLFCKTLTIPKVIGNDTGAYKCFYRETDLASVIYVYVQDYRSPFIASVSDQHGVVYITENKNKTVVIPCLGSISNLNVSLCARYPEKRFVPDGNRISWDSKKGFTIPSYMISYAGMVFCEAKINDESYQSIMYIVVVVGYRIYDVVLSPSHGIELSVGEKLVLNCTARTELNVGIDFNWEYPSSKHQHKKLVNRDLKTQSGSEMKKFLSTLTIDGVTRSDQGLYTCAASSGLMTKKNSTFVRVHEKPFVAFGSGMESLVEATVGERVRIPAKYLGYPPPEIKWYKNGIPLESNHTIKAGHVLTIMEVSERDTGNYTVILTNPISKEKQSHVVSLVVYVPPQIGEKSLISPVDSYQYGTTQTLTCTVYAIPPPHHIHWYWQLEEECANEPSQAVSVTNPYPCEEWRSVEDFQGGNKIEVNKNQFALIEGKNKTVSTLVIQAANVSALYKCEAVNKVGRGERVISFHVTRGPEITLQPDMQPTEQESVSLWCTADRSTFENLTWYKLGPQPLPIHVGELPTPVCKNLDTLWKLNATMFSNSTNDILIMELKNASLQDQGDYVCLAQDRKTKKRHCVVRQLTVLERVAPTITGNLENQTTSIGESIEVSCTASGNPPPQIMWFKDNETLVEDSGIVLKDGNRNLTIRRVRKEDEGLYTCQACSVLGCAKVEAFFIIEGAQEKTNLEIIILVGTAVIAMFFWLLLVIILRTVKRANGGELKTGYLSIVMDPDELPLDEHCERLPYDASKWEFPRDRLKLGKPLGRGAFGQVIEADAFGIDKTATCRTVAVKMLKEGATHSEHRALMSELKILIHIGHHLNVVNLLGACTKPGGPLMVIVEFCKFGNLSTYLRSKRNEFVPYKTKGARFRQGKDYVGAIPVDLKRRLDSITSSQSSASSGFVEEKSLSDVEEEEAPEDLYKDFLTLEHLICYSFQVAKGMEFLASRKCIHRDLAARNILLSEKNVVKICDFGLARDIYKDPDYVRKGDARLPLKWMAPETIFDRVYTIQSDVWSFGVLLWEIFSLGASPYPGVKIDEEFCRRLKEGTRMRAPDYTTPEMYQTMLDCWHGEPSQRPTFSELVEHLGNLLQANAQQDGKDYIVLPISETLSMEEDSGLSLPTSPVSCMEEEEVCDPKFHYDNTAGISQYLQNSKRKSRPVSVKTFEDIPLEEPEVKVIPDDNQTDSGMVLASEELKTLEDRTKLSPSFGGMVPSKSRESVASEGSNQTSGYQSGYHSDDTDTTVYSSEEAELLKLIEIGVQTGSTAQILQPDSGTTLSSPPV
Procedure: as §2, §3

SMILES | pIC50 (HCT116 cell line) | pIC50 (MCF-7 cell line) | pIC50 (B16 cell line) | melting point [°C] | pIC50 (EGFR) | pIC50 (VEGFR-2)
COc1cc2ncnc(Oc3cccc(NC(=S)Nc4ccc(C)cc4)c3)c2cc1OC [Compound 10k, 1-p-tolyl-3-[3-(6,7-dimethoxyquinazolin-4-yloxy)phenyl]thiourea] | < 4.00 | 4.58 | < 4.00 | 138.4 to 140 | < 5.00 | < 5.00
COc1cc2ncnc(Sc3cccc(NC(=S)Nc4ccc(F)cc4)c3)c2cc1OC [Compound 10u, 1-(4-Fluorophenyl)-3-[3-(6,7-dimethoxyquinazolin-4-ylsulfanyl)phenyl]thiourea] | 4.56 | 4.67 | 4.21 | 152 to 153.2 | 5.27 | 5.18
COc1cc2ncnc(Sc3cccc(NC(=S)Nc4ccc(C)cc4)c3)c2cc1OC [Compound 10v, 1-p-tolyl-3-[3-(6,7-dimethoxyquinazolin-4-ylsulfanyl)phenyl]thiourea] | 4.08 | 4.54 | < 4.00 | 163.1 to 165 | < 5.00 | < 5.00
COc1cc2ncnc(Oc3cccc(NC(=S)Nc4ccc(F)c(C(F)(F)F)c4)c3)c2cc1OC [Compound 10a, 1-[3-(6,7-Dimethoxyquinazolin-4-yloxy)phenyl]-3-(4-fluoro-3-trifluoromethylphenyl)thiourea] | 4.43 | 4.42 | 4.77 | 130.5 to 133 | 7.40 | 6.72
COc1cc2ncnc(Sc3cccc(NC(=S)Nc4ccc(F)c(C(F)(F)F)c4)c3)c2cc1OC [Compound 10l, 1-[3-(6,7-Dimethoxyquinazolin-4-ylsulfanyl)phenyl]-3-(4-fluoro-3-trifluoromethylphenyl) thiourea] | 5.06 | 4.60 | 5.03 | 128.4 to 130 |  | 
COc1cc2ncnc(Sc3cccc(NC(=S)Nc4ccc(Cl)cc4Cl)c3)c2cc1OC [Compound 10r, 1-(2,4-Dichlorophenyl)-3-[3-(6,7-dimethoxyquinazolin-4-ylsulfanyl)phenyl]thiourea] | 4.20 | 4.83 | 4.56 | 172.4 to 174 | 5.45 | < 5.00
COc1cc2ncnc(Oc3cccc(NC(=S)Nc4cccc(C(F)(F)F)c4)c3)c2cc1OC [Compound 10e, 1-(3-Trifluoromethylphenyl)-3-[3-(6,7-dimethoxyquinazolin-4-yloxy)phenyl]thiourea] | 4.92 | 4.88 | 4.83 | 147.5 to 149.6 | 6.85 | 6.46
COc1cc2ncnc(Oc3cccc(NC(=S)Nc4ccc(F)cc4)c3)c2cc1OC [Compound 10j, 1-(4-Fluorophenyl)-3-[3-(6,7-dimethoxyquinazolin-4-yloxy)phenyl]thiourea] | 4.05 | 4.63 | 4.47 | 168.5 to 170 | 5.23 | 5.15
COc1cc2ncnc(Sc3cccc(NC(=S)Nc4ccc(Cl)cc4)c3)c2cc1OC [Compound 10t, 1-(4-Chlorophenyl)-3-[3-(6,7-dimethoxyquinazolin-4-ylsulfanyl)phenyl]thiourea] | 4.64 | 4.58 | 4.24 | 124.8 to 126.1 | 5.54 | 5.16
COc1cc2ncnc(Sc3cccc(NC(=S)Nc4ccc(F)c(F)c4)c3)c2cc1OC [Compound 10s, 1-(3,4-Difluorophenyl)-3-[3-(6,7-dimethoxyquinazolin-4-ylsulfanyl)phenyl]thiourea] | < 4.00 | 4.52 | 4.38 | 128.2 to 130.4 | 5.50 | 5.29
COc1cc2ncnc(Oc3cccc(NC(=S)Nc4ccc(Br)c(C(F)(F)F)c4)c3)c2cc1OC [Compound 10c, 1-(4-Bromo-3-trifluoromethylphenyl)-3-[3-(6,7-dimethoxyquinazolin-4-yloxy)phenyl]thiourea] | 5.00 | 4.65 | 5.01 |  | 7.30 | 6.74
COc1cc2ncnc(Oc3cccc(NC(=S)Nc4ccc(Cl)cc4Cl)c3)c2cc1OC [Compound 10g, 1-(2,4-Dichlorophenyl)-3-[3-(6,7-dimethoxyquinazolin-4-yloxy)phenyl]thiourea] | 4.70 | 4.77 | 4.61 | 187.4 to 188.2 | 5.11 | < 5.00
COc1cc2ncnc(Sc3cccc(NC(=S)Nc4cc(C(F)(F)F)cc(C(F)(F)F)c4)c3)c2cc1OC [Compound 10o, 1-(3,5-Ditrifluoromethylphenyl)-3-[3-(6,7-dimethoxyquinazolin-4-ylsulfanyl)phenyl]thiourea] | 5.02 | 4.72 | 4.91 | 168.2 to 171 | 7.70 | 7.05
COc1cc2ncnc(Oc3cccc(NC(=S)Nc4ccc(Cl)cc4)c3)c2cc1OC [Compound 10i, 1-(4-Chlorophenyl)-3-[3-(6,7-dimethoxyquinazolin-4-yloxy)phenyl]thiourea] | < 4.00 | 4.65 | 4.56 | 198.3 to 201 | 5.38 | < 5.00
COc1cc2ncnc(Oc3cccc(NC(=S)Nc4cc(C(F)(F)F)cc(C(F)(F)F)c4)c3)c2cc1OC [Compound 10d, 1-(3,5-Ditrifluoromethylphenyl)-3-[3-(6,7-dimethoxyquinazolin-4-yloxy)phenyl]thiourea] | 4.82 | 4.73 | 5.07 | 122.8 to 125.6 |  | 
COc1cc2ncnc(Sc3cccc(NC(=S)Nc4cccc(C(F)(F)F)c4)c3)c2cc1OC [Compound 10p, 1-(3-Trifluoromethylphenyl)-3-[3-(6,7-dimethoxyquinazolin-4-ylsulfanyl)phenyl]thiourea] | 5.04 | 4.68 | 4.89 | 127.5 to 131 | 7.15 | 6.57
COc1cc2ncnc(Oc3cccc(NC(=S)Nc4ccc(OC(F)(F)F)cc4)c3)c2cc1OC [Compound 10f, 1-(4-Trifluoromethoxyphenyl)-3-[3-(6,7-dimethoxyquinazolin-4-yloxy)phenyl]thiourea] | 4.23 | 4.73 | 4.27 | 171.5 to 174 | < 5.00 | < 5.00
COc1cc2ncnc(Oc3cccc(NC(=S)Nc4ccc(F)c(F)c4)c3)c2cc1OC [Compound 10h, 1-(3,4-Difluorophenyl)-3-[3-(6,7-dimethoxyquinazolin-4-yloxy)phenyl]thiourea] | 4.31 | 4.80 | 4.71 | 181.3 to 184.1 | 5.31 | 5.15
COc1cc2ncnc(Sc3cccc(NC(=S)Nc4ccc(OC(F)(F)F)cc4)c3)c2cc1OC [Compound 10n, 1-(4-Trifluoromethoxyphenyl)-3-[3-(6,7-dimethoxyquinazolin-4-ylsulfanyl)phenyl]thiourea] | 4.19 | 4.49 | 4.17 | 138 to 139.3 | < 5.00 | < 5.00

Reference: PMC5943947 (Molecules : A Journal of Synthetic Chemistry and Natural …, 2017)
